Reference: paper PMC9090415, “Discovery of small molecule inhibitors of Plasmodium falciparum apicoplast DNA polymerase” (Journal of Enzyme Inhibition and Medicinal Chemistry, 2022)

Target: P. falciparum apicoplast DNA polymerase (Pf-apPOL) (Plasmodium falciparum, UniProt Q8ILY1)
Assay: Fluorescence-based high-throughput DNA polymerase assay (molecular beacon), primary screen and dose-response
Type: biochemical
Conditions: for DNA Pol: 90 min, 10 µM
Method: The HT assay employs a molecular beacon, a stem-loop DNA template with a Cy3 dye and the Black Hole Quencher on the 3′ and 5′ ends of the DNA, respectively. Pf-apPOL concentration is based on a calculated absorptivity of ε280 = 56750 M^−1 cm^−1. Reactions were carried out at 25 °C, using Corning 3575 […] (well-volume, 20 µL). Assays testing for compound inhibition composed of reaction buffer (pH 7.9 in 50 mM potassium acetate, 20 mM Tris-acetate and 10 mM magnesium acetate), Pf-apPOL (20 nM), DNA substrate (20 nM), dNTPs (6 µM), and compound (10 µM in DMSO). The DNA and nucleotide substrates (dNTPs) were at concentrations of 20 nM and 6 µM, respectively, in the assay. Pf-apPOL was incubated in the reaction buffer with dNTPs and the compound of interest (10 µM, in the assay) at 25 °C for 10 min. The DNA substrate was then added and the reaction was allowed to proceed for 90 min at 25 °C.
Each assay plate contained 16 negative controls (no Pf-apPOL, DMSO present) and 16 positive controls (Pf-apPOL present, no DMSO). The fluorescence of each well was determined using a BioTek Synergy Neo fluorescence plate reader using excitation and emission wavelengths of 555 and 570 nm, respectively.
In the above, Min is the average of fluorescence emission of the negative controls (substrate only), Max the average fluorescence emission from the positive controls (enzyme + substrate), and Test the emission from the assays in the presence of compounds (enzyme + compound + substrates). […] […] The IC50 of each compound was determined using Equation (2): (2) IC50= Vmax/(1+ (I/IC50)^n)
In the above, n measures cooperativity, with n > 1 indicating synergistic binding of more than a single molecule of the compound.
To identify apPOL inhibitors we utilised our previously developed high-throughput DNA polymerase assay. The HT assay is based on a molecular beacon DNA template that forms a stem-loop with a Cy3 dye and the Black Hole Quencher on the 3′ and 5′ ends of the DNA, respectively. DNA polymerase activity extends an annealed primer through the stem region, displacing the fluorophore from the quencher, thereby increasing its fluorescence (Figure 1(A)). The assay accurately recapitulates the kinetic behaviour of apPOL, as measured through more conventional low-throughput gel-based assays. The Z′ factor for the assay described here was 0.9 across all plates (data not shown).
Figure 1. High-throughput screening. (A) The fluorescent-based DNA polymerase assay used to screen the compound libraries. The DNA template strand is a hairpin loop with a primer annealed to the loop. The 3’ end of the primer is 11 bases away from the 6 bp duplex. Strand displacement activity of the DNA polymerase separates the Cy3 dye from the Black hole quencher leading to an increase in fluorescent signal. (B) The high-throughput assay workflow. The DNA polymerase is incubated with […] compound for 10 min prior to addition of the hairpin substrate. The reaction is quenched at 3 different time points and the fluorescent signal is measured and % inhibition is determined using the provided equation.

P. falciparum apicoplast DNA polymerase (Pf-apPOL), sequence (Q8ILY1 entry or part of it): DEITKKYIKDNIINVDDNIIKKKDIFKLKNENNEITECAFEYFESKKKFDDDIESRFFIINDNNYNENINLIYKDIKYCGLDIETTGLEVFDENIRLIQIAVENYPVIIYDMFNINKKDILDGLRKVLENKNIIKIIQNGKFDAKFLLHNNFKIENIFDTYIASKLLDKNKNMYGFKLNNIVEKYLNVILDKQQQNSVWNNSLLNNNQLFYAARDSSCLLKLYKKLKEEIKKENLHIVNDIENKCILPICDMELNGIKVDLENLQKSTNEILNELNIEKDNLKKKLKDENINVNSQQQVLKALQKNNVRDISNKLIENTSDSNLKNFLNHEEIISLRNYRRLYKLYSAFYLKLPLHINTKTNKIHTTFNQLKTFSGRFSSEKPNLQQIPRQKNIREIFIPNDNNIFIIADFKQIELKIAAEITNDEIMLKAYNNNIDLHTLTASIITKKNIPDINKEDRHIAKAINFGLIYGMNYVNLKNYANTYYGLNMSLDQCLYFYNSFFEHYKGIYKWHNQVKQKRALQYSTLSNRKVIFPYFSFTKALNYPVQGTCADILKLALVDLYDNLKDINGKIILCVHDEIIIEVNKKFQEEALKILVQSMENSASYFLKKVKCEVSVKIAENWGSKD

## CCOc1ccccc1-c1nc(-c2ccc(=O)[nH]c2)no1 [Molecule 76, CCOc1ccccc1c1onc(n1)c1ccc(=O)[nH]c1]
'DNA Pol', screening value, unit not given
  DNA Pol: 20
DRC-1, concentration 2.5
  % inhibition Apo pol 10': 0.6967%
DRC-1, concentration 5
  % inhibition Apo pol 10': 11.2745%
DRC-1, concentration 10
  % inhibition Apo pol 10': 18.9586%
DRC-1, concentration 20
  % inhibition Apo pol 10': 38.1067%
DRC-1, concentration 40
  % inhibition Apo pol 10': 53.5893%
DRC-1, concentration 80
  % inhibition Apo pol 10': 52.085%
DRC-1, 90', concentration 2.5
  % inhibition Apol 90': 1.791%
DRC-1, 90', concentration 5
  % inhibition Apol 90': 6.12%
DRC-1, 90', concentration 10
  % inhibition Apol 90': 9.377%
DRC-1, 90', concentration 20
  % inhibition Apol 90': 23.8682%
DRC-1, 90', concentration 40
  % inhibition Apol 90': 40.5664%
DRC-1, 90', concentration 80
  % inhibition Apol 90': 58.194%
DRC-1, 180', concentration 2.5
  % inhibition apPOL 180': 0.4069%
DRC-1, 180', concentration 5
  % inhibition apPOL 180': -0.1254%
DRC-1, 180', concentration 10
  % inhibition apPOL 180': 3.145%
DRC-1, 180', concentration 20
  % inhibition apPOL 180': 13.7998%
DRC-1, 180', concentration 40
  % inhibition apPOL 180': 29.3034%
DRC-1, 180', concentration 80
  % inhibition apPOL 180': 52.1842%
DRC-2, 5', concentration 2.5
  % inhibition Apo pol 5': -5.31%
DRC-2, 5', concentration 5
  % inhibition Apo pol 5': 5%
DRC-2, 5', concentration 10
  % inhibition Apo pol 5': 19%
DRC-2, 5', concentration 20
  % inhibition Apo pol 5': 30%
DRC-2, 5', concentration 40
  % inhibition Apo pol 5': 44%
DRC-2, 5', concentration 80
  % inhibition Apo pol 5': 29%
DRC-2, 40', concentration 2.5
  % inhibition Apol 40': 0.0959%
DRC-2, 40', concentration 5
  % inhibition Apol 40': 6.65%
DRC-2, 40', concentration 10
  % inhibition Apol 40': 18%
DRC-2, 40', concentration 20
  % inhibition Apol 40': 30%
DRC-2, 40', concentration 40
  % inhibition Apol 40': 50%
DRC-2, 40', concentration 80
  % inhibition Apol 40': 55%
DRC-2, 90', concentration 2.5
  % inhibition ApPOL 90': -0.625%
DRC-2, 90', concentration 5
  % inhibition ApPOL 90': 5%
DRC-2, 90', concentration 10
  % inhibition ApPOL 90': 15%
DRC-2, 90', concentration 20
  % inhibition ApPOL 90': 26%
DRC-2, 90', concentration 40
  % inhibition ApPOL 90': 48%
DRC-2, 90', concentration 80
  % inhibition ApPOL 90': 56%
DRC-2, 180', concentration 2.5
  % inhibition apPOL 180': -3%
DRC-2, 180', concentration 5
  % inhibition apPOL 180': 1.18%
DRC-2, 180', concentration 10
  % inhibition apPOL 180': 8%
DRC-2, 180', concentration 20
  % inhibition apPOL 180': 16%
DRC-2, 180', concentration 40
  % inhibition apPOL 180': 37%
DRC-2, 180', concentration 80
  % inhibition apPOL 180': 54%
Conc 5 (unit not given), 5', DRC-2
  % inhibition Apo pol 5': 5%
Conc 5 (unit not given), 90', DRC-2
  % inhibition ApPOL 90': 5%
Conc 20 (unit not given), 5', DRC-2
  % inhibition Apo pol 5': 30%
Conc 20 (unit not given), 40', DRC-2
  % inhibition Apol 40': 30%
Primary screen hit value, DNA Pol (186 hits)
  DNA Pol: 20
